Assay results taken from the RepoRT retention time repository (doi:10.1016/j.jchromb.2020.122105).

How the values were obtained:
Details in all cases: stereoisomer not certain
[1] = RP, Waters CORTECS T3, 100 × 2.1 mm, 2.7 µm, 0.3 mL/min, estimated dead time 0.73 min; A: water + 0.1% formic acid, pH 3; B: methanol + 0.1% formic acid, pH 3; gradient (min/%B) 0/5 5/5 25/100 30/100 30.1/5 35/5
[2] = RP, Waters CORTECS T3, 100 × 2.1 mm, 2.7 µm, 0.3 mL/min, estimated dead time 0.73 min; A: water + 0.1% formic acid, pH 3; B: methanol + 0.1% formic acid, pH 3; gradient (min/%B) 0/0 5/0 25/100 30/100 30.1/0 35/0
[3] = RP, Waters CORTECS T3, 100 × 2.1 mm, 2.7 µm, 0.2 mL/min, estimated dead time 1.1 min; A: water + 0.1% formic acid, pH 3; B: methanol + 0.1% formic acid, pH 3; gradient (min/%B) 0/0 1/0 6/5 30/100 35/100 35.1/0 40/0
[4] = RP, Waters CORTECS T3, 100 × 2.1 mm, 2.7 µm, 0.1 mL/min, estimated dead time 2.2 min; A: water + 0.1% formic acid, pH 3; B: methanol + 0.1% formic acid, pH 3; gradient (min/%B) 0/0 1/0 6/5 30/100 35/100 35.1/0 40/0
[5] = RP, Waters CORTECS T3, 100 × 2.1 mm, 2.7 µm, 0.15 mL/min, estimated dead time 1.5 min; A: water + 0.1% formic acid, pH 3; B: methanol + 0.1% formic acid, pH 3; gradient (min/%B) 0/0 1/0 6/5 30/100 35/100 35.1/0 40/0
[6] = RP, Waters CORTECS T3, 100 × 2.1 mm, 2.7 µm, 0.3 mL/min, estimated dead time 0.73 min; A: water + 0.1% formic acid, pH 3; B: methanol + 0.1% formic acid, pH 3; gradient (min/%B) 0/0 1/0 6/5 30/100 35/100 35.1/0 40/0
[7] = RP, Waters CORTECS T3, 100 × 2.1 mm, 2.7 µm, 0.25 mL/min, estimated dead time 0.88 min; A: water + 0.1% formic acid, pH 3; B: methanol + 0.1% formic acid, pH 3; gradient (min/%B) 0/0 1/0 6/5 30/100 35/100 35.1/0 40/0
[8] = RP, Waters CORTECS T3, 100 × 2.1 mm, 2.7 µm, 0.1 mL/min, estimated dead time 2.2 min; A: water + 0.1% formic acid, pH 3; B: methanol + 0.1% formic acid, pH 3; gradient (min/%B) 0/5 5/5 25/95 25.1/100 35/100 35.1/5 45/5
[9] = RP, Waters CORTECS T3, 100 × 2.1 mm, 2.7 µm, 0.3 mL/min, estimated dead time 0.73 min; A: water + 0.1% formic acid, pH 3; B: methanol + 0.1% formic acid, pH 3; gradient (min/%B) 0/5 5/5 25/95 25.1/100 35/100 35.1/5 45/5
[10] = RP, Waters ACQUITY UPLC BEH C18, 100 × 2.1 mm, 1.7 µm, 0.1 mL/min, estimated dead time 2.2 min; A: water + 0.1% formic acid, pH 3; B: methanol + 0.1% formic acid, pH 3; gradient (min/%B) 0/5 5/5 25/100 30/100 30.1/5 35/5
[11] = RP, Waters ACQUITY UPLC BEH C18, 100 × 2.1 mm, 1.7 µm, 0.1 mL/min, estimated dead time 2.2 min; A: water + 0.1% formic acid, pH 3; B: methanol + 0.1% formic acid, pH 3; gradient (min/%B) 0/5 5/5 25/95 25.1/100 35/100 35.1/5 45/5
[12] = as above; remark: listed apart in the source
[13] = RP, Waters CORTECS T3, 100 × 2.1 mm, 2.7 µm, 0.3 mL/min, estimated dead time 0.73 min; A: water + 0.1% formic acid, pH 3; B: methanol + 0.1% formic acid, pH 3; gradient (min/%B) 0/0 5/0 25/100 30/100 30.1/0 35/0; remark: listed apart in the source
[14] = RP, Waters CORTECS T3, 100 × 2.1 mm, 2.7 µm, 0.2 mL/min, estimated dead time 1.1 min; A: water + 0.1% formic acid, pH 3; B: methanol + 0.1% formic acid, pH 3; gradient (min/%B) 0/0 1/0 6/5 30/100 35/100 35.1/0 40/0; remark: listed apart in the source
[15] = RP, Waters CORTECS T3, 100 × 2.1 mm, 2.7 µm, 0.3 mL/min, estimated dead time 0.73 min; A: water + 0.1% formic acid, pH 3; B: methanol + 0.1% formic acid, pH 3; gradient (min/%B) 0/0 1/0 6/5 30/100 35/100 35.1/0 40/0; remark: listed apart in the source
[16] = RP, Thermo Scientific Hypercarb, 150 × 2.1 mm, 5 µm, 0.1 mL/min, estimated dead time 3.3 min; A: water + 0.1% formic acid, pH 3; B: methanol + 0.1% formic acid, pH 3; gradient (min/%B) 0/5 5/5 20/100 35/100 35.1/5 45/5
[17] = RP, Waters CORTECS T3, 100 × 2.1 mm, 2.7 µm, 0.15 mL/min, estimated dead time 1.5 min; A: water + 0.1% formic acid, pH 3; B: methanol + 0.1% formic acid, pH 3; gradient (min/%B) 0/5 5/5 25/95 25.1/100 35/100 35.1/5 45/5
[18] = RP, Waters ACQUITY UPLC BEH C18, 100 × 2.1 mm, 1.7 µm, 0.2 mL/min, estimated dead time 1.1 min; A: water + 0.1% formic acid, pH 3; B: methanol + 0.1% formic acid, pH 3; gradient (min/%B) 0/5 5/5 25/100 30/100 30.1/5 35/5
[19] = RP, Waters CORTECS T3, 100 × 2.1 mm, 2.7 µm, 0.25 mL/min, estimated dead time 0.88 min; A: water + 0.1% formic acid, pH 3; B: methanol + 0.1% formic acid, pH 3; gradient (min/%B) 0/5 5/5 25/95 25.1/100 35/100 35.1/5 45/5
[20] = RP, Waters CORTECS T3, 100 × 2.1 mm, 2.7 µm, 0.2 mL/min, estimated dead time 1.1 min; A: water + 0.045% formic acid + 0.11% ammonium hydroxide, pH 7; B: methanol; gradient (min/%B) 0/5 5/5 25/95 25.1/100 35/100 35.1/5 45/5
[21] = RP, Waters ACQUITY UPLC BEH C18, 100 × 2.1 mm, 1.7 µm, 0.1 mL/min, estimated dead time 2.2 min; A: water + 0.1% formic acid, pH 3; B: methanol + 0.1% formic acid, pH 3; gradient (min/%B) 0/5 5/5 25/95 25.1/100 35/100 35.1/5 45/5; remark: listed apart in the source
[22] = RP, Waters ACQUITY UPLC BEH C18, 100 × 2.1 mm, 1.7 µm, 0.2 mL/min, estimated dead time 1.1 min; A: water + 0.025% formic acid + 20 mM ammonium acetate + 0.055% ammonium hydroxide, pH 7; B: methanol; gradient (min/%B) 0/5 5/5 25/100 30/100 30.1/5 35/5
[23] = as above; remark: listed apart in the source
[24] = HILIC, Merck SeQuant ZIC-HILIC, 150 × 2.1 mm, 5 µm, 0.75 mL/min, estimated dead time 0.44 min; A: water + 10 mM ammonium formate, pH 6; B: 5% water + 95% acetonitrile + 10 mM ammonium formate, pH 6; gradient (min/%B) 0/95 5/95 20/57 25/57 30/95 40/95
[25] = HILIC, Merck SeQuant ZIC-HILIC, 150 × 2.1 mm, 5 µm, 0.75 mL/min, estimated dead time 0.44 min; A: water + 0.1% acetic acid + 10 mM ammonium acetate, pH 4; B: 5% water + 95% acetonitrile + 0.1% acetic acid + 10 mM ammonium acetate, pH 4; gradient (min/%B) 0/95 5/95 20/57 25/57 30/95 40/95
[26] = RP, Waters CORTECS T3, 100 × 2.1 mm, 2.7 µm, 0.2 mL/min, estimated dead time 1.1 min; A: water + 0.1% formic acid, pH 3; B: methanol + 0.1% formic acid, pH 3; gradient (min/%B) 0/5 5/5 25/95 25.1/100 35/100 35.1/5 45/5
[27] = HILIC, Waters XBridge BEH Amide, 100 × 2.1 mm, 2.5 µm, 0.5 mL/min, estimated dead time 0.44 min; A: water + 0.1% acetic acid + 10 mM ammonium acetate, pH 4; B: 5% water + 95% acetonitrile + 0.1% acetic acid + 10 mM ammonium acetate, pH 4; gradient (min/%B) 0/95 5/95 20/57 25/57 30/95 40/95

Row | LC retention time [1] [min] | LC retention time [5] [min] | LC retention time [10] [min] | LC retention time [11] [min] | LC retention time [13] [min] | LC retention time [14] [min] | LC retention time [15] [min] | LC retention time [16] [min] | LC retention time [17] [min] | LC retention time [18] [min] | LC retention time [19] [min] | LC retention time [21] [min] | SMILES | LC retention time [2] [min] | LC retention time [3] [min] | LC retention time [4] [min] | LC retention time [6] [min] | LC retention time [7] [min] | LC retention time [8] [min] | LC retention time [9] [min] | LC retention time [12] [min] | also measured
1 | 10.7 | 14.9 | 15.2 | 15.5 | 11.7 | 13.7 | 12.3 | 30.7 | 13.3 | 12.1 | 11.4 | 15.5 | O=C(O)CCCCC1SCC2NC(=O)NC21 (stereo not given) [BIOTIN] | 11.7 |  | 12.1 |  |  | 15.3 |  |  | LC retention time [20]: 1.35 min; LC retention time [22]: 3.98 min; LC retention time [23]: 6.2 min; LC retention time [24]: 7.34 min; LC retention time [25]: 8.19 min
2 | 2.45 | 9.27 | 2.74 | 2.66 |  |  |  |  |  |  |  |  | Nc1nc2nc[nH]c2c(=O)[nH]1 [GUANINE] |  | 6.86 | 3.48 |  | 5.85 | 2.71 | 2.38 | 2.66 | 
3 | 0.93 | 1.87 | 2.74 | 2.66 | 0.93 | 1.38 | 0.96 | 18.5 | 1.78 | 1.42 | 1.08 | 2.7 | CCC(NC(=O)CCC(N)C(=O)O)C(=O)NCC(=O)O (stereo not given) [OPHTHALMIC ACID] | 0.93 | 1.38 |  | 0.92 | 1.13 |  | 0.9 |  | LC retention time [26]: 2.74 min; LC retention time [22]: 1.36 min; LC retention time [25]: 13.8 min; LC retention time [27]: 14.5 min

Row | SMILES | LC retention time [1] [min] | LC retention time [5] [min] | LC retention time [10] [min] | LC retention time [11] [min] | LC retention time [13] [min] | LC retention time [14] [min] | LC retention time [15] [min] | LC retention time [16] [min] | LC retention time [17] [min] | LC retention time [18] [min] | LC retention time [19] [min] | LC retention time [21] [min] | LC retention time [2] [min] | LC retention time [3] [min] | LC retention time [4] [min] | LC retention time [6] [min] | LC retention time [7] [min] | LC retention time [8] [min] | LC retention time [9] [min] | LC retention time [12] [min] | also measured
4 | NC(Cc1ccc(Oc2cc(I)c(O)c(I)c2)c(I)c1)C(=O)O (stereo not given) [3,3',5'-TRIIODOTHYRONINE] | 17.3 | 22.5 | 21.6 | 22.2 |  |  |  |  |  |  |  |  | 17.9 | 21.4 | 19.1 | 20.2 | 20.8 | 21.8 | 17.9 | 22.2 | 
5 | O=C(O)c1ccc(=O)[nH]c1 [6-HYDROXYNICOTINATE] | 2.27 | 6.98 | 6.36 | 6.29 |  |  |  |  |  |  |  |  | 3.6 | 5.13 | 3.28 | 3.45 | 4.17 | 6.46 | 2.17 | 2.75 | 
